“And” between values parts separate entries of the source, which are not always exact repeats. Identical values can stand only once.
Tested on: N. gonorrhoeae
Test: N. gonorrhoeae murine vaginal infection model, efficacy
Format: in vivo, mouse
Settings: BID
Experimental: The N. gonorrhoeae female mouse vaginal model[45] was performed in accordance with the Guide for Care and Use of Laboratory Animals[75]. Animal rooms were maintained at a temperature range of 20–24 °C and humidity between 30% and 70%, with 12 h light/dark cycles. Ovariectomized BALB/c female mice (5–6 weeks, BioLASCO Taiwan Co., Ltd.) were treated with estradiol (0.23 mg/mouse) two days before infection and on the day of infection. Ovariectomized mice were used to avoid staging mice before treating them with estradiol. Beginning two days prior to infection and maintained until the end of the study, animals were treated twice daily with streptomycin (1.2 mg/mouse) and vancomycin (0.6 mg/mouse) each via intraperitoneal (IP) injection and received trimethoprim sulfate in the drinking water (0.4 mg/mL) to control vaginal microflora. Animals were anesthetised with pentobarbital (80 mg/kg), the vagina was rinsed with 50 mM HEPES (pH 7.4), and then inoculated with N. gonorrhoeae in pre-warmed PBS (0.02 mL/mouse containing ~1 × 10^5 CFU).
Control groups received either a single IP injection of ceftriaxone or 5% dextrose (vehicle) twice daily. Animals were sacrificed via CO2 asphyxiation at either 2 h (baseline), 26 and/or 50 h post-infection. Vaginal lavage was performed twice with 200 µL GC broth containing 0.05% saponin to recover bacteria. Bacterial burden in the lavage fluids was determined by performing 10-fold serial dilutions and plating on chocolate agar plates. Four strains were assessed using the model; ATCC 700825 is naturally streptomycin-resistant, whereas AR Bank0179-15, AR Bank0181-17 and WHO X-07 are derivatives of AR Bank0179, AR Bank0181 and WHO X, respectively, that were engineered for streptomycin resistance for use in the model.

[1] = Data 4, N. gonorrhoeae WHO X-07, ovariectomized BALB/c, 20 mg/kg PO, 24h, individual animals, 20 mg/kg
[2] = Data 4, N. gonorrhoeae WHO X-07, ovariectomized BALB/c, 20 mg/kg PO, 48h, individual animals, 20 mg/kg
[3] = Data 4, N. gonorrhoeae WHO X-07, ovariectomized BALB/c, 30 mg/kg PO, 24h, individual animals, 30 mg/kg
[4] = Data 4, N. gonorrhoeae WHO X-07, ovariectomized BALB/c, 30 mg/kg PO, 48h, individual animals, 30 mg/kg
[5] = Data 4, N. gonorrhoeae WHO X-07, ovariectomized BALB/c, 40 mg/kg PO, 24h, individual animals, 40 mg/kg
[6] = Data 4, N. gonorrhoeae WHO X-07, ovariectomized BALB/c, 40 mg/kg PO, 48h, individual animals, 40 mg/kg
[7] = Data 4, N. gonorrhoeae WHO X-07, ovariectomized BALB/c, 80 mg/kg PO, 24h, individual animals, 80 mg/kg
[8] = Data 4, N. gonorrhoeae WHO X-07, ovariectomized BALB/c, 80 mg/kg PO, 48h, individual animals, 80 mg/kg
[9] = Data 4, N. gonorrhoeae WHO X-07, ovariectomized BALB/c, 160 mg/kg PO, 24h, individual animals, 160 mg/kg
[10] = Data 4, N. gonorrhoeae WHO X-07, ovariectomized BALB/c, 160 mg/kg PO, 48h, individual animals
[11] = N. gonorrhoeae AR Bank0179-15, vaginal lavage, individual mice, Debio 1453P 10 mg/kg PO, 24h
[12] = N. gonorrhoeae AR Bank0179-15, vaginal lavage, individual mice, Debio 1453P 10 mg/kg PO, 48h
[13] = N. gonorrhoeae AR Bank0179-15, vaginal lavage, individual mice, Debio 1453P 20 mg/kg PO, 24h

In the case of Cc1c(CN(C)C(=O)/C=C/c2cnc3c(c2)N[C@H](C)[C@H](OP(=O)([O-])[O-])C(=O)N3)oc2ccccc12.[Na+].[Na+] [Debio 1453 P], the CFU/mL lavage fluid [1] is reported as 780000 CFU/mL lavage fluid and 510000 CFU/mL lavage fluid and 2110000 CFU/mL lavage fluid and 820000 CFU/mL lavage fluid and 1010000 CFU/mL lavage fluid, the “Log10(CFU/mL lavage fluid)” value [1] is reported as 5.89 Log10(CFU/mL lavage fluid) and 5.71 Log10(CFU/mL lavage fluid) and 6.32 Log10(CFU/mL lavage fluid) and 5.91 Log10(CFU/mL lavage fluid) and 6.00 Log10(CFU/mL lavage fluid) and the CFU/mL lavage fluid [2] is reported as 2660000 CFU/mL lavage fluid and 620000 CFU/mL lavage fluid and 3200000 CFU/mL lavage fluid and 920000 CFU/mL lavage fluid and 870000 CFU/mL lavage fluid. The “Log10(CFU/mL lavage fluid)” value [2] was 6.42 Log10(CFU/mL lavage fluid) and 5.79 Log10(CFU/mL lavage fluid) and 6.51 Log10(CFU/mL lavage fluid) and 5.96 Log10(CFU/mL lavage fluid) and 5.94 Log10(CFU/mL lavage fluid), the CFU/mL lavage fluid [3] was 740000 CFU/mL lavage fluid and 760000 CFU/mL lavage fluid and 840000 CFU/mL lavage fluid and 440000 CFU/mL lavage fluid and 700000 CFU/mL lavage fluid and the “Log10(CFU/mL lavage fluid)” value [3] was 5.87 Log10(CFU/mL lavage fluid) and 5.88 Log10(CFU/mL lavage fluid) and 5.92 Log10(CFU/mL lavage fluid) and 5.64 Log10(CFU/mL lavage fluid) and 5.85 Log10(CFU/mL lavage fluid). For the same molecule, the CFU/mL lavage fluid [4] was 790000 CFU/mL lavage fluid and 1090000 CFU/mL lavage fluid and 46000 CFU/mL lavage fluid and 550000 CFU/mL lavage fluid and 1250000 CFU/mL lavage fluid, the “Log10(CFU/mL lavage fluid)” value [4] was 5.90 Log10(CFU/mL lavage fluid) and 6.04 Log10(CFU/mL lavage fluid) and 4.66 Log10(CFU/mL lavage fluid) and 5.74 Log10(CFU/mL lavage fluid) and 6.10 Log10(CFU/mL lavage fluid) and the CFU/mL lavage fluid [5] was 2240000 CFU/mL lavage fluid and 380000 CFU/mL lavage fluid and 92000 CFU/mL lavage fluid and 77000 CFU/mL lavage fluid and 610000 CFU/mL lavage fluid. The “Log10(CFU/mL lavage fluid)” value [5] was 6.35 Log10(CFU/mL lavage fluid) and 5.58 Log10(CFU/mL lavage fluid) and 4.96 Log10(CFU/mL lavage fluid) and 4.89 Log10(CFU/mL lavage fluid) and 5.79 Log10(CFU/mL lavage fluid), the CFU/mL lavage fluid [6] was 123000 CFU/mL lavage fluid and 55000 CFU/mL lavage fluid and 380000 CFU/mL lavage fluid and 85000 CFU/mL lavage fluid and 1000000 CFU/mL lavage fluid and the “Log10(CFU/mL lavage fluid)” value [6] was 5.09 Log10(CFU/mL lavage fluid) and 4.74 Log10(CFU/mL lavage fluid) and 5.58 Log10(CFU/mL lavage fluid) and 4.93 Log10(CFU/mL lavage fluid) and 6.00 Log10(CFU/mL lavage fluid). For the same molecule, the CFU/mL lavage fluid [7] was 5 CFU/mL lavage fluid and 295 CFU/mL lavage fluid and 380 CFU/mL lavage fluid and 10 CFU/mL lavage fluid, the “Log10(CFU/mL lavage fluid)” value [7] was 0.70 Log10(CFU/mL lavage fluid) and 2.47 Log10(CFU/mL lavage fluid) and 2.58 Log10(CFU/mL lavage fluid) and 1.00 Log10(CFU/mL lavage fluid) and the CFU/mL lavage fluid [8] was 55 CFU/mL lavage fluid and <5 CFU/mL lavage fluid and 5 CFU/mL lavage fluid. For the same molecule, the “Log10(CFU/mL lavage fluid)” value [8] was 1.74 Log10(CFU/mL lavage fluid) and <0.70 Log10(CFU/mL lavage fluid) and 0.70 Log10(CFU/mL lavage fluid), the CFU/mL lavage fluid [9] was <5 CFU/mL lavage fluid and 30 CFU/mL lavage fluid and 5 CFU/mL lavage fluid and the “Log10(CFU/mL lavage fluid)” value [9] was <0.70 Log10(CFU/mL lavage fluid) and 1.48 Log10(CFU/mL lavage fluid) and 0.70 Log10(CFU/mL lavage fluid). The CFU/mL lavage fluid [10] was under 5 CFU/mL lavage fluid, the “Log10(CFU/mL lavage fluid)” value [10] was <0.70 Log10(CFU/mL lavage fluid) and the CFU/mL lavage fluid [11] was 390000 CFU/mL and 85000 CFU/mL and 46000 CFU/mL and 59000 CFU/mL and 77000 CFU/mL. The “Log10(CFU/mL lavage fluid)” value [11] was 5.59 Log10(CFU/mL lavage fluid) and 4.93 Log10(CFU/mL lavage fluid) and 4.66 Log10(CFU/mL lavage fluid) and 4.77 Log10(CFU/mL lavage fluid) and 4.89 Log10(CFU/mL lavage fluid), the CFU/mL lavage fluid [12] was 64000 CFU/mL and 520000 CFU/mL and 61000 CFU/mL and 80000 CFU/mL and 103000 CFU/mL and the “Log10(CFU/mL lavage fluid)” value [12] was 4.81 Log10(CFU/mL lavage fluid) and 5.72 Log10(CFU/mL lavage fluid) and 4.79 Log10(CFU/mL lavage fluid) and 4.9 Log10(CFU/mL lavage fluid) and 5.01 Log10(CFU/mL lavage fluid). For the same molecule, the CFU/mL lavage fluid [13] was 47000 CFU/mL and 64000 CFU/mL and 4900 CFU/mL and 1450 CFU/mL and 20400 CFU/mL and the “Log10(CFU/mL lavage fluid)” value [13] was 4.67 Log10(CFU/mL lavage fluid) and 4.81 Log10(CFU/mL lavage fluid) and 3.69 Log10(CFU/mL lavage fluid) and 3.16 Log10(CFU/mL lavage fluid) and 4.31 Log10(CFU/mL lavage fluid).
